Patent US20250186450A1, “COMBINATION THERAPY COMPRISING DGK INHIBITORS and PD-1/PD-L1 INHIBITORS” (Incyte Corporation, priority 2023, published 2025)

What was measured:
DGKζ = DGKζ (Homo sapiens (Human), UniProt Q13574); assay: In vitro DGKζ inhibition assay (ADP-Glo); assay type: biochemical; details: 0.4 nM DGKζ, 30 μM ATP, 20 μM DLG
Description: The DGKα and DGKζ biochemical reactions were performed using His-tagged human recombinant enzymes (Signal Chem, DGKα, #D21-10BH; DGKζ, #D30-10H)) and DLG (Dilauroyl-sn-glycerol) lipid substrate (Signal Chem, #D430-59). ADP-Glo assay was performed using ADP-Glo™ kinase Assay kit (Promega, #V9104). The reactions were carried out in assay buffer containing 40 mM Tris, pH 7.5, 0.1% CHAPS, 0.1% Prionex, 40 mM NaCl, 5 mM MgCl2, 1 mM CaCl2, and 1 mM DTT. DGKα reactions contained 0.1 nM DGKα, 50 μM ATP, and 20 μM DLG. And DGKζ reactions contained 0.4 nM DGKζ, 30 μM ATP, and 20 μM DLG.
For compound inhibition studies, 40 nL test compound in DMSO was added to wells of white polystyrene plates in 384-well (Greiner, #784075) or 1536-well format (Greiner, #782075). Compounds were added with top concentration of 2 mM with 11 point, 3-fold dilution series. Enzyme solution (contains 2×DGK enzyme concentration in 1× assay buffer) was added to the plate in 2 μL/well volume, followed by 2 μL/well of substrate solution (contains 2× concentration of ATP and DLG substrate in 1× assay buffer). Plates were then centrifuged for 1 min at 1200 RPM and sealed or lidded. For 4 μL reaction volume, test compounds were therefore diluted 100× to final top concentration of 20 μM. After 90 minute incubation, reactions were quenched by addition of 2 μL/well Promega ADP-Glo Reagent, followed by centrifugation and lidding. After 60 min incubation, 2 μL/well Promega Kinase Detection Reagent was added, plates centrifuged, and incubated for 30 min. Plates were then read using Luminescence method on BMG PHERAstar FSX plate reader. Percent inhibition was calculated and IC50s were determined using 4-parameter fit in Genedata Screener. Labcyte Echo acoustic dispenser was used for compound addition, and Formulatrix Tempest liquid handler was used for all reagent dispenses.

[1] = test system: human CD3+ T cells co-cultured with allogenic dendritic cells; assay: Allogenic mixed lymphocyte reaction assay, IFNγ by HTRF; assay type: cell-based
Description: To assess the ability of 4-((2S,5R)-4-((3,3-difluorocyclobutyl)(4-(trifluoromethyl)phenyl)methyl)-2,5-dimethylpiperazin-1-yl)-2-methyl-1-(((S)-tetrahydrofuran-2-yl)methyl)-1H-[1,2,4]triazolo[3,4-b]purine (i.e., Compound 2) to further enhance the T cell effector function induced by checkpoint blockade, the combination effect of Compound 2 and anti-PD-1 reagent (retifanlimab and pembrolizumab) was evaluated in an allogenic mixed lymphocyte reaction assay.
In brief, Human PBMCs were isolated from leukopaks (BioIVT) obtained from healthy donors by the Ficoll-Paque (Cytiva 17144002) cell separation method. Monocyte isolation was performed using the Dynabeads Untouched human monocyte kit (Life Technologies 11350D), and monocytes were cultured in 10% FBS RPMI 1640 treated with 100 ng/mL granulocyte-macrophage colony-stimulating factor (R&D Systems 215-GM/CF) and 50 ng/mL IL-4 (R&D Systems 204-IL/CF) for at least 6 days at 37° C. with 5% CO2 to differentiate into dendritic cells. Pan T cells were isolated using the Dynabeads Untouched human T-cell kit (Life Technologies 11344D) and plated at 1×10^5 cells/well in 100 μL of 10% FBS RPMI 1640 in 96-well, round-bottom plates (Costar 3879). […] After 20 hours of incubation at room temperature, the HTRF signal was measured by the PHERAstar FSX microplate reader (BMG Labtech). […]

DGKζ, sequence (Q13574 whole entry): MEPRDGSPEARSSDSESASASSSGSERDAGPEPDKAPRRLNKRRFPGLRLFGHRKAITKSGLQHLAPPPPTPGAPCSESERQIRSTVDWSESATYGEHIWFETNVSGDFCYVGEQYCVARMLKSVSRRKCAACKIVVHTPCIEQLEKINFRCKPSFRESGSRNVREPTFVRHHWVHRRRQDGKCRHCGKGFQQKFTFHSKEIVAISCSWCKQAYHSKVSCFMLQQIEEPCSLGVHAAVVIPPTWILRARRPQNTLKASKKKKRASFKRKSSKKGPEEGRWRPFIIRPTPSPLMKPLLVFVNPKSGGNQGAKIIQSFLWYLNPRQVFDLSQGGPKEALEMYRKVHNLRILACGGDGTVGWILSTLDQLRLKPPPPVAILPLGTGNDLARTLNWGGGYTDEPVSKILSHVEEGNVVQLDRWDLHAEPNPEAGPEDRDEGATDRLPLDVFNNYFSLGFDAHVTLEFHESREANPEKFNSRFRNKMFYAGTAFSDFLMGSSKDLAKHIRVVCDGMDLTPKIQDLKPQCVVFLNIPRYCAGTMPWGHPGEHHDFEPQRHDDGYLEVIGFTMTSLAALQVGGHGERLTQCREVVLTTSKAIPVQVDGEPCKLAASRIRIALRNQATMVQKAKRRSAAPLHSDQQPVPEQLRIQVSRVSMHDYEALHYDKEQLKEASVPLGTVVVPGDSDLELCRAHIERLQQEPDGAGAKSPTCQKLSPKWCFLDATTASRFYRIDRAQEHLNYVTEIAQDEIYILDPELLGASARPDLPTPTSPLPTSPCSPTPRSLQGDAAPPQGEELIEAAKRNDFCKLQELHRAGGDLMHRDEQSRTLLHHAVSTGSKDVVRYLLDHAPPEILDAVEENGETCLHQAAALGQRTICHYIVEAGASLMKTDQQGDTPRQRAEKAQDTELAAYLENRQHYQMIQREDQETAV

| IC50 (DGKζ) [nM] | SMILES | production of IFNγ, combination vs single agents ([1]; 4 nM Compound 2 plus 0.7 nM pembrolizumab vs anti-PD-1 mAb or Compound 2 single agent, FIG. 5B) | production of IFNγ, combination vs single agents ([1]; 4 nM Compound 2 plus 0.7 nM retifanlimab vs anti-PD-1 mAb or Compound 2 single agent, FIG. 5A) |
| --- | --- | --- | --- |
| ≤ 20 | Cc1nc2c(N3C[C@@H](C)N(C(c4ccc(C(F)(F)F)cc4)C4CC(F)(F)C4)C[C@@H]3C)nc3nncn3c2n1C[C@@H]1CCCO1 (single isomer, unassigned) [Example 2] | statistically significant higher production of IFNγ | statistically significant higher production of IFNγ |
| ≤ 20 | C[C@@H]1CN(c2nc3nncn3c3c2nnn3C[C@H]2CCCO2)[C@@H](C)CN1C(c1ccc(F)cc1)c1ccc(F)cc1 [Example 1, 4-((2S,5R)-4-(Bis(4-fluorophenyl)methyl)-2,5-dimethylpiperazin-1-yl)-1-(((R)-tetrahydrofuran-2-yl)methyl)-1H-[1,2,3]triazolo[4,5-e][1,2,4]triazolo[4,3-a]pyrimidine] | – | – |
